In assay [1] the test system is NB4-LR2 (PML-RARα). The experiment in a line: Humanized xenograft: NSG mice transplanted with NB4-LR2 cells, Olaparib treatment. Format: in vivo, mouse. Here is the method:
(§1) We established humanized models of AML1-ETO and PML-RARα leukemia in sub-lethally irradiated NOD/SCID/IL2Rg−/−(NSG, 1 dose 200 RADs) by transplanting 2×10^6 Kasumi (intra-femoral, IF) and 1×10^5 NB4-LR2 or 1×10^5 THP1 (intravenous, IV) cells. The day after the transplantation, mice were split into two groups and given intra-peritoneal injections of vehicle (10% HBC) or Olaparib (25 mg/kg in 10% HBC) daily for 2-4 weeks. The maximum tolerable dose was calculated by in vivo dose-response experiments. Mice were monitored daily until they developed symptoms of leukemia, when they were culled and bone marrow, spleen and liver harvested and analyzed by FACS. The engraftment of human donor cells was defined as human CD45/CD33 double positive by FACS.
(In general: In xenograft studies the graft and the host belong to different species.)

The test system of assay [2] is THP1 (MLL-AF9). The assay is described as follows: Humanized xenograft: NSG mice transplanted with THP1 cells, Olaparib treatment. Format: in vivo, mouse. As for the experimental part: as §1
The subject of assay [3] is MLL-AF9 LSC. The assay is described as follows: C57Bl6 mice transplanted with pretreated MLL-AF9 LSC, PARPi and GSK3i treatment. Format: in vivo, mouse. Here is the method:
For mouse MLL-AF9 LSC in vivo studies involving PARPi and GSK3i, MLL-AF9 LSC were pretreated in R20/20 with 4 mM LiCl or 1 uM Olaparib or combination for 3 days. Equal number 0.2×10^6 of live cells were transplanted into sublethally irradiated C57Bl6 mice. Continuous Olaparib and LiCO3 treatment was commenced on the day after irradiation and injection of cells. Mice were given 0.4% lithium carbonate containing diet (Harlan Laboratory) along with Olaparib by IP every other day for 4 weeks. The engraftment of mouse donor cells was defined as CD45.1+/CD45.2− by FACS.

For assay [4], the system named is NB4-LR2 (PML-RARα). The assay is described as follows: In vitro PARPi treatment of human leukemic cell line NB4-LR2. Format: cell-based. As for the experimental part:
NB4-LR2 and THP1 cell lines (kindly provided by Dr Arthur Zelent and Professor Mel Greaves respectively) were cultured in RPMI (Invitrogen) supplemented with 10% selected FBS (R10), 2 mM L-Glutamine. Kasumi cell line (kindly provided by Dr Olaf Heidenreich) was cultured in RPMI-Hepes modified (Sigma) supplemented with 20% selected FBS and 2 mM L-[…]). Cell lines were validated by qPCR for their respective oncogenes. NIH3T3 and GP2 cell line was cultured in DMEM (Invitrogen) supplemented with 10% selected FBS and 2 mM L-Glutamine. Human primary AML cells were cultured in IMEM (Invitrogen) supplemented with […], 2 mM L-Glutamine, 10 ng/mL each of human cytokines, IL3, IL6, SCF, FLT3 ligand, and TPO. Cells were kept at 37° C. and 5% CO2. Use of human primary cells was approved by King's College London committee and consents of the patients were obtained. […] Colonies were scored 6-7 days after plating. […] Samples were then washed in PBS analysed at the FACS LSRII (BD Biosciences Pharmingen) with FACS Diva. […] Cells were counted in at least 5 fields for each slide, for a total of over 100 cells. The percentage of senescent cells was calculated by the percentage of the number of blue cell in the field.

[5] abbreviates: NSG mice succumbed with NB4-LR2 driven disease, Olaparib 25 mg/kg i.p. daily.
[6] abbreviates: NSG mice succumbed with THP1 driven disease, Olaparib 25 mg/kg i.p. daily.
[7] abbreviates: C57Bl6 mice, MLL-AF9 wild-type leukemia, cells pre-treated 3 days, then in vivo treatment 4 weeks.

Each structure is given as a SMILES string.

For `O=C(c1cc(Cc2n[nH]c(=O)c3ccccc23)ccc1F)N1CCN(C(=O)C2CC2)CC1` [Olaparib, 4-[(3-[(4-cyclopropylcarbonyl)piperazin-4-yl]carbonyl)-4-fluorophenyl]methyl(2H)-phthalazin-1-one], in assay [1] (setting [5]), the “BM Engraftment (%)” value was 40.27 ± 23.73%, the “Disease Latency (days; median)” value is on record as 51 days, the “Hematopoietic Liver Engraftment (%)” value was 58.99 ± 27.07% and the “Hematopoietic Spleen Engraftment (%)” value is listed as 33.39 ± 25.3%. Besides, in assay [1] (setting [5]), the “Liver” value turned out to be 2.415 ± 1.844 g and the “Spleen” value turned out to be 0.5226 ± 0.5279 g. In assay [1] (single agent, NB4-LR2 xenograft), the “disease onset induced by ATRA-resistant APL cells” value was “effectively suppress disease onset”. In assay [2] (setting [6]), the “BM Engraftment (%)” value is recorded as 30.7 ± 33.27%, the “Disease Latency (days; median)” value was determined as 81 days, the “Hematopoietic Liver Engraftment (%)” value is reported as 27.81 ± 31.79% and the “Hematopoietic Spleen Engraftment (%)” value turned out to be 8.53 ± 6.946%. In assay [2] (setting [6]), the “Liver” value came out at 1.31 ± 0.153 g and the “Spleen” value was 0.0822 ± 0.0301 g. Besides, the “survival of xenograft model transplanted with human THP1 cells” value in assay [2] (THP1 cells carrying MLL-AF9) was “no effect on the survival”. In assay [3] (setting [7]), the “BM Engraftment (%)” value is on record as 80.23 ± 23.70%, the “Disease Latency (days; median)” value is recorded as 45.8 days, the “Hematopoietic Liver Engraftment (%)” value was determined as 76.5 ± 19.21% and the “Hematopoietic Spleen Engraftment (%)” value stood at 65.07 ± 43.46%. In addition, in assay [3] (setting [7]), the “Liver” value came to 2.868 ± 0.4089 g and the “Spleen” value came to 1.218 ± 0.3266 g. In addition, the survival entry in assay [3] (pretreated MLL LSC in syngeneic mice, 80 days of observation, controls succumbed within 8 weeks) is “did not significantly extend the survival”. Besides, in assay [4] (PARPi 72 hrs / 4 days), the senescence and apoptosis result was “effectively induce senescence and apoptosis”. For the same molecule, in assay [4] (methylcellulose 7 days, 5 μM Olaparib), the colony forming ability result is given as “reduced the colony forming ability”.

Values taken from patent US10799501B2, “Combination of an inhibitor of PARP with an inhibitor of GSK-3 or DOT1L” (King's College London, priority 2015, dated 2020).
